Here are results for 21 compounds from article PMC9727179, “Acorane sesquiterpenes from the deep-sea derived Penicillium bilaiae fungus with anti-neuroinflammatory effects” (Frontiers in Chemistry, 2022).

Entries after “also recorded” stand apart in the source; their conditions may differ. Read-outs that look alike come from different tables or passages of the source.

The test system of data set [1] is NO production in LPS-induced BV-2 cells. The experiment in a line: Inhibition of NO production in LPS-induced BV-2 cells (Griess method). The following applies: for IC50: LPS (1 μg/ml)-induced BV-2 cells, 24 h, read-out: IC50, inhibitory effect against NO production. It counts as cell-based, murine. Here is the method: In the presence or absence of LPS (1 μg/ml), murine BV-2 microglial cells were treated with compounds with different concentrations for 24 h. The same volume of Griess reagent was added to the supernatant of culture media. The Griess method was used to determine the NO levels under the absorbance at 540 nm measured using a microplate spectrophotometer (Thermo Scientifics, United States). Based on the established calibration curve of standard sodium nitrite solutions, the content of nitrite was calculated.

The next data set deals with BV-2 microglial cells. The experiment in a line: Cell viability / cytotoxicity, MTT method. The following applies: BV-2 cells. It counts as cell-based, murine. Here is the method: (§1) Murine BV-2 microglial cells were obtained from the Cell Culture Center of Institute of Basic Medical Sciences, Chinese Academy of Medical Sciences, and the cells were cultured in Dulbecco’s modified Eagle’s medium (Gibco) together with 10% (v/v) fetal bovine serum (HyClone) within a 5% CO2 incubator at 37°C. The MTT method was utilized to detect the cytotoxicity of the compound to read the absorbance at 570 nm using a microplate spectrophotometer (Thermo Scientifics, United States).

Data set [2] can be described thus: Cell viability / cytotoxicity, MTT method. In kind it is cell-based, murine. The following applies: mouse, BV-2 microglial cells, BV-2 cells. Here is the method: as §1
In another data set the test system is NF-κB p65. The experiment in a line: Nuclear translocation of NF-κB p65 in LPS-stimulated BV-2 cells (immunofluorescence and Western blot). The following applies: LPS (1 μg/ml)-stimulated BV-2 cells, 2 μM, 3 h, immunofluorescence and WB. In kind it is cell-based, murine. Here is the method: (§2) In 12-well plates, BV-2 cells were seeded to incubate with LPS (1 μg/ml) for 1 h. Each compound was incubated with BV-2 cells for 16 h. Phenylmethylsulfonyl fluoride-protease inhibitor cocktail as the cell extraction buffer was used to lyse cells. Nuclear and cytosolic extraction kits were applied for the collection of the cytosolic and nuclear extracts. Upon SDS-PAGE, proteins were purified and transferred to PVDF membranes (Millipore). After treatment with 5% (W/V) skim milk in TBST (Tris-buffered saline with 0.1% Tween 20) for 1 h, the membranes were maintained at 4°C overnight. The membrane was washed and then incubated with a secondary antibody at 20°C for 1 h. The target proteins were visualized under a chemiluminescence (ECL) detection system, and the relative optical densities were analyzed by Image Master™ 2D Elite software.
Prior to LPS induction, BV-2 cells were pretreated by the compound (2 μM) in DMSO. Cells were seeded in glass coverslips, which were then treated with cold 4% paraformaldehyde and 0.2% Triton X-100 (in PBS). […] Images were detected using a fluorescence microscope (OLYMPUS IX83).
FIGURE 8 Effect of analog 18 on the nuclear translocation of NF-κB p65 in LPS-stimulated BV-2 cells. […] (B) BV-2 cells were stimulated with LPS (1 μg/ml) in the absence or presence of 18 (2 μM) for 3 h, and NF-kB p65 levels in the nucleus and cytoplasm were determined by Western blot. […]

Data set [3] relates to COX-2. The experiment in a line: Western blot of COX-2 protein expression in LPS-induced BV-2 cells. It counts as cell-based, murine. The following applies: LPS (1 μg/mL)-induced BV-2 cells, different concentrations, 24 h. Here is the method:
as §2
(§3) FIGURE 6 Analog 18 inhibited the expression of iNOS and COX-2 in LPS-induced BV-2 cells. Cells were stimulated by 1 μg/mL LPS with or without 18 for 24 h. (A) The protein expressions o f iNOS treated by different concentrations of 18 were determined by Western blot assay, (B) the expressions of COX-2 t reated by different concentrations of 18 were determined by Western blot assay. […]

For data set [4], the system named is phosphorylation of JNK, ERK and p38 (MAPK signaling pathway). As to the kind of experiment: MAPK phosphorylation in LPS-stimulated BV-2 cells. It counts as cell-based, murine. The following applies: LPS-stimulated BV-2 microglial cells. Here is the method:
as §2

Data set [5] deals with COX-2. As to the kind of experiment: COX-2 mRNA level. In kind it is cell-based.
Data set [6] concerns iNOS. The experiment in a line: Western blot of iNOS protein expression in LPS-induced BV-2 cells. In kind it is cell-based, murine. The following applies: LPS (1 μg/mL)-induced BV-2 cells, different concentrations, 24 h. Here is the method:
as §2, §3

Data set [7] has as its system iNOS. The experiment in a line: iNOS mRNA level. In kind it is cell-based.

For `C=C(C)C1C(O)CC(C)C12CCC(CO)C(O)C2` (centres unmarked) [Compound 16, Bilaiaeacorenol P], the IC50 in data set [1] is 7.5 ± 0.2 µM. This compound returned a CC50 in the data set with BV-2 microglial cells of more than 100 µM.
Consider `CC1=CCC23CC1OC(C)(CO)C2C(O)CC3C` (centres unmarked) [Compound 1, Bilaiaeacorenol A], for which, in data set [1] (Mus musculus, BV-2, 24 h), the half-inhibitory concentration (IC50) was more than 10 µM. This compound also had a CC50 in data set [2] of more than 100 µM.
Consider `C=C(C)C1C(O)CC(C)C12CC(=O)C(C)C(O)C2` (centres unmarked) [Compound 17, Bilaiaeacorenol Q], for which, in [1] (Mus musculus, BV-2, 24 h), the concentration for half-maximal inhibition (IC50) is more than 10 µM. Besides, the CC50 in data set [2] is more than 100 µM.
As for `C=C(CO)C1C(OC(C)=O)CC(C)C12CC=C(C)C(O)C2` (centres unmarked) [Compound 10, Bilaiaeacorenol J], the IC50 in data set [1] (Mus musculus, BV-2, 24 h) is more than 10 µM. The CC50 in [2] was more than 100 µM.
With `C=C(C)C1C(O)CC(C)C12CC=C(C)C(O)C2` (centres unmarked) [Compound 5, Bilaiaeacorenol E], the IC50 in data set [1] (Mus musculus, BV-2, 24 h) is more than 10 µM. The compound further yielded a cytotoxic concentration (CC50) in [2] of more than 100 µM.
In the case of `C=C(C)C1C(OC(C)=O)CC(C)C12CC(O)C(C)(O)C(O)C2` (centres unmarked) [Compound 15, Bilaiaeacorenol O], the IC50 in data set [1] (Mus musculus) stood at 3.7 ± 0.1 µM. In addition, the CC50 in data set [2] is more than 100 µM.
Regarding adametacorenol B [Compound 20], the half-maximal inhibitory concentration (IC50) in data set [1] is more than 10 µM. The same compound displayed a CC50 in the data set on BV-2 microglial cells of more than 100 µM.
In the case of `C=C(C)C1C(O)CC(C)C12CCC(CO)C(O)C2` (centres unmarked) [Compound 14, Bilaiaeacorenol N], the 50% inhibitory concentration (IC50) in data set [1] (Mus musculus) was more than 10 µM. Besides, the CC50 in the data set with BV-2 microglial cells was more than 100 µM.
In the case of `C=C(C)C1C(O)CC(C)C12CCC(CO)C(O)C2` (centres unmarked) [Compound 12, Bilaiaeacorenol L], the IC50 in [1] (Mus musculus, BV-2, 24 h) is more than 10 µM. This compound showed a half-maximal cytotoxic concentration (CC50) in [2] of more than 100 µM.
As for `[H]/N=C(/NC)NCCC[C@H](N)C(=O)O` [L-NMMA, NG-monomethyl-L-arginine, reference compound], the IC50 in [1] (Mus musculus, BV-2, 24 h) worked out at 6.8 ± 4.2 µM. In data set [2], this compound returned a CC50 of more than 100 µM.
For the compound `CC1=CCC2(CC1O)C(C)CC(O)C2C(C)CO` (centres unmarked) [Compound 4, Bilaiaeacorenol D], the IC50 in data set [1] (Mus musculus, BV-2, 24 h) came to 7.6 ± 1.2 µM. Further, the CC50 in [2] was more than 100 µM.
For `C=C(C)C1C(OC(C)=O)CC(C)C12CC(O)C(C)=CC2O` (centres unmarked) [Compound 9, Bilaiaeacorenol I], the IC50 in [1] (Mus musculus) came to 3.5 ± 0.1 µM. This compound also registered a CC50 in data set [2] of more than 100 µM.
Regarding adametacorenol A [Compound 19], in [1], the half-inhibitory concentration (IC50) is more than 10 µM. For the same compound, in the data set with BV-2 microglial cells, the CC50 is more than 100 µM.
For the compound `C=C(C)C1C(O)CC(C)C12C=CC(C)(O)C(O)C2` (centres unmarked) [Compound 11, Bilaiaeacorenol K], the IC50 in data set [1] (Mus musculus, BV-2, 24 h) came to 8.7 ± 2.1 µM. This compound gave a CC50 in data set [2] of more than 100 µM.
Regarding `C=C(C)C1C(O)CC(C)C12CC(O)C(C)=CC2O` (centres unmarked) [Compound 8, Bilaiaeacorenol H], in data set [1] (Mus musculus, BV-2, 24 h), the concentration for half-maximal inhibition (IC50) is more than 10 µM. In [2], this compound showed a CC50 of more than 100 µM.
As for `C=C(C)C1C(O)CC(C)C12CC=C(CO)C(O)C2` (centres unmarked) [Compound 7, Bilaiaeacorenol G], the IC50 in data set [1] (Mus musculus, BV-2, 24 h) was more than 10 µM. In data set [2], this compound gave a CC50 of more than 100 µM.
On to `CC1=CCC2(CC1O)C(C)CC(O)C2C(C)(O)CO` (centres unmarked) [Compound 3, Bilaiaeacorenol C], for which the IC50 in data set [1] (Mus musculus, BV-2, 24 h) is 5.3 ± 1.1 µM. This compound also registered a CC50 in [2] of more than 100 µM.
For `C=C(C)C1C(OC(C)=O)CC(C)C12CCC(CO)C(O)C2` (centres unmarked) [Compound 13, Bilaiaeacorenol M], the IC50 in data set [1] (Mus musculus, BV-2, 24 h) was 0.53 ± 0.47 µM. The same compound had a CC50 in [2] of more than 100 µM.
`CC1CC(O)C2C(C)(O)CC3CC12CC=C3CO` (centres unmarked) [Compound 2, Bilaiaeacorenol B] had a melting point of 108 to 110 °C. Besides, the IC50 in data set [1] (Mus musculus, BV-2, 24 h) was 6.1 ± 2.3 µM. Also, in data set [2], the CC50 was more than 100 µM.
On to `C=C(C)C1C(O)CC(C)C12CC=C(C)C(O)C2` (centres unmarked) [Compound 6, Bilaiaeacorenol F], for which the IC50 in [1] is more than 10 µM. The same compound registered a CC50 in the data set on BV-2 microglial cells of more than 100 µM.
Turning to `C=C(C)C1C(O)CC(C)C12CCC(C(=O)O)C(O)C2` (centres unmarked) [Compound 18, Bilaiaeacorenol R], the “p65 level in the nucleus” value in the data set on NF-κB p65 is given as “significantly downregulated”. Besides, the “COX-2 level (protein)” value in the data set with COX-2 [3] was “decreased”. The “phosphorylation of JNK, ERK and p38” value in data set [4] is “slightly affected; also recorded: Ineffective”. For the same compound, the “COX-2 mRNA level” value in the data set on COX-2 [5] is recorded as “marked reductions”. Also, in the data set on iNOS [6], the “iNOS level (protein)” value was “decreased”. Besides, in data set [1] (LPS-induced BV-2 cells, dose-dependent manner), the “reduction against NO production” value is recorded as “efficient reduction”. Besides, in data set [1] (Mus musculus, BV-2, 24 h), the IC50 came to 0.5 ± 1.2 µM. The “iNOS mRNA level” value with iNOS [7] is reported as “marked reductions”. The compound also gave a CC50 in data set [2] of more than 100 µM.
